Test: Clearance in human liver microsomes
Assay type: in vitro ADME
Settings: hepatic extraction ratio; 0.5 μM compound, 0.5 mg/mL microsomes, 1 mM NADPH, 30 min
Experimental: Test compound concentration is 0.5 μM, microsome concentration is 0.5 mg/mL and NADPH concentration is 1 mM in the incubation. The described method is performed by the liquid handling system Tecan RSP and is based on a 96-well format.
Control incubations with test compound without NADPH and test compound without microsomes are conducted to investigate non-CYP mediated metabolism and stability in phosphate buffer at 37° C., respectively.
The human liver microsomal suspension in phosphate buffer is mixed with NADPH. The mixture is pre-heated (7 min) to 37° C. Test compound is added, and the mixture is incubated for 30 minutes. Incubations are run in duplicate. Samples are withdrawn at predetermined stop times and mixed with methanol containing internal standard (IS) to terminate all enzyme activity and precipitate proteins. A control without NADPH (to detect problems such as nonspecific protein binding, heat instability or non-CYP mediated metabolism) and a control without microsomes (for assessing compound stability in the absence of any active enzymes) are tested.
The percentage of organic solvent in the incubations is less than 1%. Careful inspections of reagents are performed prior to the start of any experiment to ensure all reagents are in solution.
The 96-well plates are centrifuged. Test compound depletion, using a compound specific LC/MS/MS method, is determined.
The logarithm of the peak area ratios of test compound to internal standard (IS) versus incubation time is plotted in a graph.
The rate constant (k) (min^−1) of test compound depletion is calculated from the linear part of the curve and the half-time (t1/2) in minutes can be calculated from the rate constant (Eq. 2).
Intrinsic clearance (Clint) (mL/min/mg protein) is calculated from: […]
where c is the microsomal protein concentration in mg/mL.
Intrinsic clearance is the maximum ability of the liver to extract a drug in the absence of blood flow restrictions.
Conversion to apparent clearance (Clapp) (mL/min/kg) is done by Eq. 4:
Clapp=Clint×a×b/d (Eq. 4)
where a, b and d are the scaling factors for normalizing Clint to human body weight.
The following human scaling factors are used:
a: 45 (microsomal protein/liver weight (mg/g)) b: 1500 (liver weight (g)) d: 70 (body weight (kg))
Hepatic clearance (Clh) (mL/min/kg) based on the well-stirred model is described as followed:
Clh=(Clapp·Q)/(Clapp+Q) (Eq. 5)
where Q is the liver blood flow in mL/min/kg (20 in humans).
Dividing hepatic clearance with liver blood flow, the hepatic extraction ratio (%) can be calculated:
Apparent clearance below approximately 10 mL/min/kg human body weight (corresponding to extraction ratio of approx. 33%) is considered as low clearance (high metabolic stability). Apparent intrinsic clearance above approximately 60 mL/min/kg human body weight (corresponding to extraction ratio of approx. 75%) is considered as high clearance (low metabolic stability).

| Structure (SMILES) | Clearance (% Eh) in human liver microsomes |
| --- | --- |
| C[C@@H](N[C@H]1CC[C@@H](c2ccc(NCCNCCO)nc2)C1)c1cccc2ccccc12.O=CO.O=CO.O=CO [Compound 101, 2-[2-[[5-[(1R,3S)-3-[[(1R)-1-(1-Naphthyl)ethyl]amino]cyclopentyl]-2-pyridyl]amino]ethylamino]ethanol] | A (A: Eh < 33%) |
| COc1cc([C@@H](C)N[C@H]2CC[C@@H](c3ccc(NC4CCNCC4)nc3)C2)ccc1F [Compound 107, 5-[(1R,3S)-3-[[(1R)-1-(4-Fluoro-3-methoxy-phenyl)ethyl]amino]cyclopentyl]-N-(4-piperidyl)pyridin-2-amine] | A (A: Eh < 33%) |
| COc1cc([C@@H](C)N[C@H]2CC[C@@H](c3ccc(N4CCNC(=O)C4)nc3)C2)ccc1F [Compound 109, 4-[5-[(1R,3S)-3-[[(1R)-1-(4-Fluoro-3-methoxy-phenyl)ethyl]amino]cyclopentyl]-2-pyridyl]piperazin-2-one] | A (A: Eh < 33%) |
| COc1cc([C@@H](C)N[C@H]2CC[C@@H](c3ccc(NCCS(N)(=O)=O)nc3)C2)ccc1F [Compound 113, 2-[[5-[(1R,3S)-3-[[(1R)-1-(4-Fluoro-3-methoxyphenyl)ethyl]amino]cyclopentyl]-2-pyridyl]amino]ethanesulfonamide] | A (A: Eh < 33%) |
| COc1cc([C@@H](C)N[C@H]2CC[C@@H](c3ccc(NCC(O)CO)nc3)C2)ccc1F (stereo partly drawn) [Compound 115, 3-[[5-[(1R,3S)-3-[[(1R)-1-(4-Fluoro-3-methoxyphenyl)ethyl]amino]cyclopentyl]-2-pyridyl]amino]propane-1,2-diol] | A (A: Eh < 33%) |
| COc1cc([C@@H](C)N[C@H]2CC[C@@H](c3ccc(N4CCN(C(C)=O)CC4)nc3)C2)ccc1F [Compound 116, 1-[4-[5-[(1R,3S)-3-[[(1R)-1-(4-Fluoro-3-methoxyphenyl)ethyl]amino]cyclopentyl]-2-pyridyl]piperazin-1-yl]ethanone] | A (A: Eh < 33%) |
| COc1cc([C@@H](C)N[C@H]2CC[C@@H](c3cnc(N4CCNC(=O)C4)nc3)C2)ccc1F [Compound 126, 4-[5-[(1R,3S)-3-[[(1R)-1-(4-Fluoro-3-methoxy-phenyl)ethyl]amino]cyclopentyl]pyrimidin-2-yl]piperazin-2-one] | A (A: Eh < 33%) |
| COc1cc([C@@H](C)N[C@H]2CC[C@@H](c3cnc(N4CCN(C(C)=O)CC4)nc3)C2)ccc1F.O=CO [Compound 127, 1-[4-[5-[(1R,3S)-3-[[(1R)-1-(4-Fluoro-3-methoxy-phenyl)ethyl]amino]cyclopentyl]pyrimidin-2-yl]piperazin-1-yl]ethanone] | A (A: Eh < 33%) |

— patent US20130267516A1, “SUBSTITUTED CYCLOPENTYL-AZINES AS CASR-ACTIVE COMPOUNDS” (LEO PHARMA A/S, priority 2010, published 2013)
